This note sets out measurements from patent publication US20160031859A1, “Alkyl [(S)-1-((S)-2--buta-1,3-diynyl)-phenyl]-1H-imidazol-2-yl}-pyrrolidine-1-carbonyl)-2-methyl-propyl]-carbamate naphthalene-1,5-disulfonate, pharmaceutical composition, medicament, method for treatment of viral diseases” (priority 2013, published 2016).

Some results are limits rather than exact numbers.

Data set [1] relates to genotype 1a HCV. The experiment in a line: HCV replicon inhibitory activity, genotype 1a. The class given is cell-based. The following applies: Hepatitis C virus; HCV genotype 1a, FBS; read-out: gT1a FBS EC50. On the technique in general: In antiviral work, replicon cells carry a viral genome segment that copies itself.
Data set [2] in a line: Investigation of storage of naphthalene-1,5-disulfonates (amount of admixtures, UV 220 nm). The following applies: for Max admixture / Sum of admixtures: refrigerator, 4.7° C. Type of data set: physicochemical. Here is the method:
Investigation of storage of naphthalene-1,5-disulfonates of the general formula 1. All samples were stored in glass vials sealed with rubber cork and aluminum caps, in a refrigerator at a temperature of about ˜4.7 ° C. The amount of admixtures was determined by method of internal normalization, detection was carried out using UV detector at 220 nm. Below are given the test results for compound 1.1 showing their stability at temperature 4.7° C.

For data set [3], the system named is subgenomic RNA-replicon HCV (genotype 1b, clon Con1). The experiment in a line: HCV replicon immunoenzymatic assay in Huh7 cells, genotype 1b. Type of data set: cell-based. To be noted: Hepatitis C virus, Huh-7, read-out: gT1b FBS EC50. Here is the method: Determination of antiviral activity of the compounds of the general formula 1 (inhibiting ability of NS5A protein).
Inhibiting ability of compounds of formula 1 of NS5A protein was determined in the human hepatoma cell line Huh7, comprising subgenomic RNA-replicon HCV (genotype 1b, don Con1). A version of immumoenzymatic assay (IEA) on viral protein NS5A in 96-well plate was used as an experimental method. Cytotoxicity of the compounds was estimated in parallel regime.
Cells Huh7 were seeded in 96-well plate (7.5×10^3 cells to each well in 100 μl of culture medium). Solutions of the tested compounds in DMEM medium {DMEM 1×; Source: Cellgro; Catalogue: 10-013-CV} were prepared immediately before use. Eleven serial three fold dilutions with variation of concentrations from 20 nM to 0.2 pM were prepared. In 4 hours after seeding, serial dilutions of the compounds were added to the cells (100 μl to each well). Final concentration of tested compounds was varied from 10 nM to 0.1 pM, and DMSO—0.5%. If it was necessary, higher concentrations of the disclosed azoles were investigated. Each dilution of the compound was tested on two identical wells. […] The reaction was arrested by the addition of 2N H2SO4 in amount of 100 μl/well, and optical density (wavelength 490 nm) was measured by means of multiscan plate reader Victor3 V 1420 (Perkin Elmer). […]

Data set [4] relates to genotype 2a HCV. The experiment in a line: HCV replicon inhibitory activity, genotype 2a. Type of data set: cell-based. To be noted: Hepatitis C virus; HCV genotype 2a, FBS; read-out: gT2a FBS EC50.

In the case of `COC(=O)N[C@H](C(=O)N1CCC[C@H]1c1ncc(C#CC#Cc2ccc(-c3cnc([C@@H]4CCCN4C(=O)[C@@H](NC(=O)OC)C(C)C)[nH]3)cc2)[nH]1)C(C)C` [Compound 1.1, methyl [(S)-1-((S)-2-{5-[4-(4-{2-[(S)-1-((S)-2-methoxycarbonylamino-3-methyl-butyryl)-pyrrolidin-2-yl]-3H-imidazol-4-yl}-buta-1,3-diynyl)-phenyl]-1H-imidazol-2-yl}-pyrrolidine-1-carbonyl)-2-methylpropyl]-carbamate naphthalene-1,5-disulfonate], the EC50 in data set [1], in data set [3] and in data set [4] was < 1 nM in each case. The Max admixture in data set [2] (1 week storage) amounted to 0.348%; in data set [2] (4 weeks storage) it was 0.341%; in data set [2] (20 weeks storage), 0.298%; in data set [2] (before the test) it was 0.342%. For the same compound, the Sum of admixtures in data set [2] (1 week storage) was determined as 1.369%; in data set [2] (4 weeks storage), 1.506%; in data set [2] (20 weeks storage) it was 1.493%; in data set [2] (before the test) it was 1.312%. For the same compound, the “storage stability, in words” value in data set [2] (temperature 4.7° C.) was “stability”.
